Target: T1, Recombinant ι-CgsA (Pseudoalteromonas carrageenovora, UniProt A0A2K4X859)
T1 construct: gene PCARR_a1089; without signal peptide (cleavage Ala22/Gln23 predicted in the Q3IKL4 ortholog), N-terminal 6 His-tag, pFO4 vector, E. coli BL21(DE3); primers for cloning deduced from the P. haloplanktis TAC 125 gene
Assay: methylumbelliferone release, absorbance at […] nm; hyperbolic regression
Format: biochemical
Conditions: 35 °C, pH 8.3, 50 mM Tris-HCl, 200 mM NaCl; MUFS 5.2 to 206.5 μM; preliminary; read-out: Apparent Km

T1 sequence (A0A2K4X859 entry or part of it): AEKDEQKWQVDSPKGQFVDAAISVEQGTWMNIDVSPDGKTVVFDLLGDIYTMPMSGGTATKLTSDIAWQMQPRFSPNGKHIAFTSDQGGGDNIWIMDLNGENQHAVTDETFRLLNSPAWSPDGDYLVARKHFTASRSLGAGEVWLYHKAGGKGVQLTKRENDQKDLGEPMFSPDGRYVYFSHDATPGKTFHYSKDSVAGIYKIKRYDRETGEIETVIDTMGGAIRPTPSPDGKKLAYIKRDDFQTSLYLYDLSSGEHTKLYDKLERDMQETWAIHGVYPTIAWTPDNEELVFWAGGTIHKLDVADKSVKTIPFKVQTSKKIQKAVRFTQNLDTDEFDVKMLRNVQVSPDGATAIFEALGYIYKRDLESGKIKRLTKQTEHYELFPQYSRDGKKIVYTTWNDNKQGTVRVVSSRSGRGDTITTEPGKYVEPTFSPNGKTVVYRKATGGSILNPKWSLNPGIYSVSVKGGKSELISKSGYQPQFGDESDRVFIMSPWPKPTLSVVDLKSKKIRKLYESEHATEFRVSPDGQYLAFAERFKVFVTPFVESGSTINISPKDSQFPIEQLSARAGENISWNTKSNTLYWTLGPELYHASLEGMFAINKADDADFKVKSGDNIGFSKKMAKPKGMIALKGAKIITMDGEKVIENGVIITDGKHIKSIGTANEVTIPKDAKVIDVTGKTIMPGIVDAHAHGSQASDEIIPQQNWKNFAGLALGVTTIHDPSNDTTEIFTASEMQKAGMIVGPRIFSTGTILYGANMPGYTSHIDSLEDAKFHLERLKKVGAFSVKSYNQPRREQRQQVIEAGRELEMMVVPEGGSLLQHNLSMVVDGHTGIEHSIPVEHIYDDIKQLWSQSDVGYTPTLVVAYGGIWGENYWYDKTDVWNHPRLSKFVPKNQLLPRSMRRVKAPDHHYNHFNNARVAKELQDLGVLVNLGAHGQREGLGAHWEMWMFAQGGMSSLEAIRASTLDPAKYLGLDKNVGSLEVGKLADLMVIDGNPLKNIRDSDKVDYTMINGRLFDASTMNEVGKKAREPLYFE

Km: 13.4 ± 4.9 µM
Structure (SMILES): Cc1cc(=O)oc2cc(OS(=O)(=O)O)ccc12 [MUFS]

Reference: publication PMC4144425, “Discovery of a novel iota carrageenan sulfatase isolated from the marine bacterium Pseudoalteromonas carrageenovora” (Frontiers in Chemistry, 2014)
